# Source: ChEMBL document CHEMBL1135292, “A practical synthesis of (S) 3-tert-butoxycarbonylamino-2-oxo-2,3,4,5-tetrahydro-1,5-benzodiazepine-1-acetic acid methyl ester as a conformationally restricted dipeptido-mimetic for caspase-1 (ICE) inhibitors” (Bioorg Med Chem Lett, 2002)
# Tests used:
# Caspase-1 = target: T1, Caspase-1 (Homo sapiens, UniProt P29466); assay: Compound was tested for inhibitory activity against IL-1 beta converting enzyme
# T1 sequence (P29466 whole entry): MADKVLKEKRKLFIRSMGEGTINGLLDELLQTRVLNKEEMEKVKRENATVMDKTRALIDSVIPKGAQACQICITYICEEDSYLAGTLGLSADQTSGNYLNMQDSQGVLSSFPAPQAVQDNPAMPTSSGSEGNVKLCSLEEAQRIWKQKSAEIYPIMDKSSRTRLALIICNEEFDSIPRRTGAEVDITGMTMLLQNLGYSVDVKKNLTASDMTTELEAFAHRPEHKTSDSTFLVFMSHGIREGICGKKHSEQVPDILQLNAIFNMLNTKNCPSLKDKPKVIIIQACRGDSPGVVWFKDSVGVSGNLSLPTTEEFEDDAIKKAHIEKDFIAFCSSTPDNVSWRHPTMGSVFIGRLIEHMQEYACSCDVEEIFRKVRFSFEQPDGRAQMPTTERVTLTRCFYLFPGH
# Homo sapiens = organism: Homo sapiens; assay: Ability to block the release of interleukin-1 beta from human whole blood stimulated with heat-killed staphylococcus aureus; type: functional, organism-based
Ki (Caspase-1) [nM],Compound,IC50 (Homo sapiens) [nM]
90,O=C(CN1C(=O)[C@@H](NC(=O)c2ccccc2)CN(C(=O)CCc2ccccc2)c2ccccc21)N[C@H]1CC(=O)OC1O (some centres not stated),–
–,CC(=O)N[C@@H](Cc1ccc(O)cc1)C(=O)N[C@H](C(=O)N[C@@H](C)C(=O)N[C@H]1CC(=O)OC1O)C(C)C (some centres not stated),4000
